Source: ChEMBL document CHEMBL3507680, “University of Dundee, Gates Library screen for HepG2 cell viability”

Assay: Human HepG2 cell viability assay in 384 well format
Format: toxicity, cell-based
Parameters: dose 125 nL, time 70.5 hour; concentration not given beside the values
Conditions: HepG2 cells, read-out: Inhibition

SMILES	cytotoxicity at 70.5 h [%]
O=C(c1ccc[nH]1)N1C[C@H](OCc2cccnc2)[C@H]2COC[C@H]21	5.01
Cc1cccc(CN2CC3(CCNCC3)OCC2=O)n1	0.469
CN(C)c1ncc(-c2cc(C(=O)O)n(CC3CC3)c2)cn1	-4.19
CC(C)(C)CC(=O)N1CC[C@@H]2[C@H](CC1)N(S(C)(=O)=O)CCS2(=O)=O	-5.98
CS(=O)(=O)N1Cc2nccn2CC(Cn2ncccc2=O)C1 (stereo not drawn)	3.97
O=C(c1ccccn1)N1Cc2nccn2CC(COc2cccnc2)C1 (stereo not drawn)	22.8
CC1c2ncc(Cn3cncn3)n2CCN1C(=O)C1CCOCC1 (stereo not drawn)	-2.59
COCC(=O)N1CC[C@H]2C[C@@H](c3nnc(C4CC4)o3)O[C@@H]2C1	5.55
CN(Cc1ccccn1)C1COC2(CCN(Cc3nccs3)CC2)C1 (stereo not drawn)	15.3
Cn1cccc1C(=O)N1CCN(CC2CC2)c2ncccc2C1	2.74
Cn1cccc1C(=O)N1CCc2ncc(Cn3cccn3)n2CC1	16.9
CCNC(=O)c1nc2c(s1)CCCN2S(C)(=O)=O	28.7
FC(F)(F)c1cc(N2CCc3ncnc(NC4CC4)c3CC2)ncn1	5.67
CN(C)CC(=O)N1CCOCC2(C1)CN(c1ccccc1)C(=O)CO2 (stereo not drawn)	-45.3
Cc1nc(CN2C[C@@H]3OCCN(c4ncc(F)cn4)[C@@H]3C2)cs1	-11.3
COCCN1CCN(C(=O)C2CC=CC2)Cc2cccnc21	-12
COCCN1C(=O)[C@]2(CC[C@@H]3CN(C(=O)NC4CCCC4)C[C@@H]32)N=C1C	-14.1
CN1CCC(c2cnc(NCc3nccn3C)cn2)CC1	17.9
CCCn1nccc1-c1nccnc1CC1CCN(C(C)=O)C1 (stereo not drawn)	-2.05
Cc1nc(-c2ccc(CNS(=O)(=O)N(C)C)cc2)ccc1C(N)=O	-2.19
CC(C)C(=O)N1CCC(c2c(C(N)=O)sc3ccccc23)C1 (stereo not drawn)	18.5
COCC(=O)N1CCCC(c2nc(N)ncc2-c2cccc(F)c2)C1 (stereo not drawn)	2.19
CN(C)S(=O)(=O)N1CCC(c2ccnc(Nc3ccccn3)n2)C1 (stereo not drawn)	-0.703
CN(C)c1cc(C2CCCN(C(=O)c3noc4c3CCCC4)C2)ccn1 (stereo not drawn)	-1.31
O=C(c1noc2c1CCCC2)N1CCCC(c2nccs2)C1 (stereo not drawn)	-3.76
Cc1cc(C)n(-c2nc(C(=O)NCCS(=O)(=O)N3CCCCC3)cs2)n1	-2.01

SMILES	cytotoxicity at 70.5 h [%]
O=C(NCC1CCOCC1)c1cc(-c2ccncc2)c2cnccc2n1	-2.01
CC(=O)Nc1ccc(CCC2(NC(=O)C3CCCO3)CCCCC2)cn1 (stereo not drawn)	-0.834
Cc1nc(C(=O)N2CCC(c3cc(CCO)n(C)n3)C2)co1 (stereo not drawn)	16.6
COCC(=O)N1CCCC(c2nc(N(C)C)ncc2-c2ccccc2)C1 (stereo not drawn)	4.41
COCCC(=O)N1CCC(c2ccc3c(NC(C)C)n[nH]c3n2)C1 (stereo not drawn)	-6.39
Cc1cc(Cc2ccccc2C)cc(C2CCCNC2)n1 (stereo not drawn)	-4.93
CCS(=O)(=O)N1C[C@@H](O)[C@H](Oc2cccc(F)c2)C1	-9.71
O=C(O)c1ccccc1-c1ccc(CN2CCOCC2)cn1	-7.9
Cc1cc(Cc2ccccc2)cc(C2CCCNC2)n1 (stereo not drawn)	-5.23
Cc1ncc(CN)c(-c2cn(C)c3ccccc23)n1	-7.92
O=C(O)c1ccccc1-c1ccc(CN2CCC(CO)CC2)cn1	-9.48
CNc1cc(C2CCN2c2ncccn2)nc(C)n1 (stereo not drawn)	-6.05
CNC(=O)C1(C)CN(c2nnc(C)c3ccccc23)CCO1 (stereo not drawn)	-6.81
CC(C)(C)OC(=O)N1CCn2c(nnc2C2CCCNC2)C1 (stereo not drawn)	6.76
CC(=O)N1CCC(CCc2ccnc(Nc3ccccn3)c2)CC1	26.8
Cn1cnc2ccc(NC(=O)CC3CCN(S(C)(=O)=O)CC3)cc21	12
CCn1c(C)nc2cc(NC(=O)CC3CCN(S(C)(=O)=O)CC3)ccc21	-18.6
O=C(O)c1ccccc1-c1ccc(CNC(=O)C2CCOCC2)cc1	-4.99
Cc1n[nH]c(C)c1CC(=O)N1CCC(O)(CN2CCOCC2)C1 (stereo not drawn)	-12.6
CC(=O)N1CCCC(C(=O)c2cnn(-c3ccc(F)cc3)c2N)C1 (stereo not drawn)	-2.75
COCC(=O)N1CCCC(C(=O)c2cnn(-c3ccc(F)cc3)c2N)C1 (stereo not drawn)	9.29
CCOc1ccc(CN2CCC(c3[nH]ncc3C)C2)cc1CO (stereo not drawn)	-7.99
Cc1ccc(C(=O)N2CCc3c(CNS(C)(=O)=O)cncc3C2)o1	0.323
O=C(NCC1CCCO1)c1cc(-c2ccncc2)c2cnccc2n1 (stereo not drawn)	-8.71
CNC[C@H]1CC[C@H](c2cc(CN(C)C(=O)c3cnccn3)n(C)n2)CC1	-8.17
COc1ccccc1Cc1cncc(N2CC(C(=O)O)C2)n1	-13.5

SMILES	cytotoxicity at 70.5 h [%]
c1nnc(Nc2cncc(C3CCCN3)n2)s1 (stereo not drawn)	-7.63
CCS(=O)(=O)N1CCc2c(CN(C)Cc3ccco3)cncc2C1	-6.14
CC1c2ncc(Cn3cncn3)n2CCN1C1CCOCC1 (stereo not drawn)	2.73
N#Cc1ccc(C(=O)N2CCn3c(Cn4cccn4)cnc3C2)cc1	7.14
O=C1CC(c2ccccc2)C2(CCN(CC3CC3)CC2)N1 (stereo not drawn)	-5.14
O=C(NCc1ccco1)[C@H]1C[C@@H]2CCN(c3ccncn3)C[C@@H]2O1	-5.88
Fc1ccc(CN2CCO[C@H]3[C@H](OCC4CC4)CC[C@@H]32)cc1	-4.72
CCN1CCC2(CC1)CC(NC(=O)N(C)C)c1cc(C)ccc12 (stereo not drawn)	1.47
Cn1nccc1-c1ccc2nc(C3CCN(CCO)CC3)nn2c1	-2.61
O=C(N1CCCO1)[C@@]12CCO[C@@H]1CCN(C1CCCCC1)C2	14
Cc1ccc(CN2C[C@@H]3COC[C@H](NS(C)(=O)=O)[C@@H]3C2)o1	-12.4
Cc1nc(N2CCOCC2)nc2c1CCN(Cc1cccnc1)CC2	-17.8
COCCN1C[C@@H](C)[C@@]2(COCCN(C(=O)c3cnc(C)cn3)C2)C1	-5.26
CC(=O)N1CCOCC2(CCN(Cc3ccc(C)s3)CC2)C1	-4.66
Cc1ncnc2c1CCN(Cc1cccs1)CC2	22.9
O=C(NC1CC1)[C@H]1C[C@H]2OCC[C@H]2N(CC2CC2)C1	13.9
Cc1cccc(C(=O)N2C[C@@H]3OCCN(c4ncccn4)[C@@H]3C2)n1	2.67
O=C1CC[C@@H]2[C@@H](CCN2Cc2ccncc2)N1c1ccccc1	4.02
Cn1cccc1C(=O)N1CCN(Cc2ccncc2)c2ncccc2C1	-7.79
Fc1ccc(CN2CCO[C@H]3[C@H](OCCN4CCCC4)CC[C@@H]32)cc1	-5.14
COCC1c2c(cnn2CC2CC2)CCN1Cc1cccs1 (stereo not drawn)	-2.83
Cn1cc(CN2CC[C@H]3CO[C@H](CNc4ncccn4)[C@H]3C2)cn1	20.3
Cn1cc(CN2C[C@@H]3COC[C@]3(C(=O)NCc3ccccn3)C2)cn1	-17.5
COCc1cnc2n1CCN(Cc1cccnc1)C2C (stereo not drawn)	-17.6
CO[C@H]1CCN(S(=O)(=O)c2cn(C)cn2)[C@H]1Cc1cccnc1	-22.4
CN(Cc1cccnc1)[C@@H]1CN(CC2CC2)[C@@H]2CCCO[C@H]12	-2.78
